Test systems include CCRF-CEM leukemia; HT29 colon; K-562 leukemia; KM12 colon; LOX IMVI melanoma; M14 melanoma; NCI-H522 lung; NCI/ADR-RES ovarian; OVCAR-3 ovarian; RPMI-8226 leukemia; SF-268 CNS; SK-MEL-28 melanoma; SN12C renal; SR leukemia; TK-10 renal.
What all share (assay): NCI tumour cell line growth inhibition, 48 h

SMILES strings stand for the structures.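 Method: 48-hour compound exposure of cells in 96-well plates, five concentrations, linear interpolation of endpoints. GI50: concentration for 50% inhibition of growth. Definition used: TGI = concentration required for complete inhibition of growth.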 A value given as a limit tells only on which side of the number the result lay.

Turning to `O=C1Nc2nccnc2C(=O)N2CCC[C@@H]12`, the TGI with CCRF-CEM leukemia, in the experiment with HT29 colon, in the experiment on K-562 leukemia, in the experiment on KM12 colon, in the experiment on LOX IMVI melanoma and in the experiment with M14 melanoma was > 100 µM in each case. The TGI in the experiment with NCI-H522 lung, in the experiment on NCI/ADR-RES ovarian, with OVCAR-3 ovarian, in the experiment with RPMI-8226 leukemia, in the experiment with SF-268 CNS and in the experiment with SK-MEL-28 melanoma was > 100 µM each time. The TGI in the experiment on SN12C renal, in the experiment with SR leukemia and in the experiment on TK-10 renal was > 100 µM throughout.

On to `Cc1ccc2c(=O)cc(-c3ccc4ccccc4c3)[nH]c2n1`, for which the TGI in the experiment on CCRF-CEM leukemia was 14.6 µM; in the experiment on HT29 colon it was > 100 µM; in the experiment with K-562 leukemia, 13 µM; in the experiment with KM12 colon it was 65.4 µM; in the experiment with LOX IMVI melanoma, 39.6 µM; in the experiment on M14 melanoma it was > 100 µM. The TGI was 20.5 µM with NCI-H522 lung; 48.5 µM in the experiment with NCI/ADR-RES ovarian; > 100 µM with OVCAR-3 ovarian; 19.5 µM in the experiment on RPMI-8226 leukemia; > 100 µM in the experiment on SF-268 CNS; > 100 µM with SK-MEL-28 melanoma. Moreover, the TGI in the experiment with SN12C renal is > 100 µM; with SR leukemia, 5.59 µM; in the experiment with TK-10 renal it was > 100 µM. Moreover, the GI50 in the experiment on OVCAR-3 ovarian is 3.59 µM.

On to `O=C(/C=C/c1ccccc1)Nc1ccccc1SCCCCl`, for which the TGI with CCRF-CEM leukemia was > 100 µM; with HT29 colon it was > 41.4 µM; in the experiment with K-562 leukemia, > 100 µM; in the experiment with KM12 colon it was > 64.6 µM; in the experiment with LOX IMVI melanoma, > 68.2 µM; in the experiment with M14 melanoma it was > 100 µM. The TGI with NCI-H522 lung is 24.3 µM; in the experiment on NCI/ADR-RES ovarian, 35.1 µM; in the experiment on OVCAR-3 ovarian it was > 92.1 µM; in the experiment with RPMI-8226 leukemia, > 100 µM; with SF-268 CNS it was > 100 µM; in the experiment on SK-MEL-28 melanoma, > 100 µM. In addition, the TGI in the experiment on SN12C renal was 98.5 µM; in the experiment on SR leukemia, 64.7 µM; with TK-10 renal, > 100 µM.

With `O=C1/C(=C/c2ccccc2[N+](=O)[O-])N=C(c2ccccc2)N1c1nc2ccccc2s1`, the TGI in the experiment on CCRF-CEM leukemia is 0.681 µM; with HT29 colon, > 100 µM; in the experiment with K-562 leukemia, 44.7 µM; in the experiment on KM12 colon, 43.5 µM; in the experiment with LOX IMVI melanoma, 56.8 µM; with M14 melanoma, > 100 µM. Also, the TGI was 40.1 µM in the experiment on NCI-H522 lung; 39.5 µM with NCI/ADR-RES ovarian; 51.9 µM in the experiment with OVCAR-3 ovarian; 61.6 µM with RPMI-8226 leukemia; 60.4 µM with SF-268 CNS; > 100 µM with SK-MEL-28 melanoma. The TGI in the experiment on SN12C renal is 64.3 µM; in the experiment with SR leukemia it was 34.3 µM; in the experiment on TK-10 renal, > 100 µM.

With `COc1ccc(OC)c2c1C=CC(Br)=CC2`, the TGI is > 1 µM in the experiment on CCRF-CEM leukemia; 0.284 µM in the experiment with HT29 colon; 0.419 µM in the experiment on K-562 leukemia; 0.85 µM with KM12 colon; 0.302 µM with LOX IMVI melanoma; 0.822 µM in the experiment with M14 melanoma. Moreover, the TGI is 0.579 µM in the experiment with NCI-H522 lung; > 1 µM in the experiment on NCI/ADR-RES ovarian; > 1 µM in the experiment on OVCAR-3 ovarian; 0.387 µM in the experiment on RPMI-8226 leukemia; > 1 µM in the experiment on SF-268 CNS; > 1 µM in the experiment with SK-MEL-28 melanoma. The TGI with SN12C renal was > 1 µM; in the experiment on SR leukemia, 0.488 µM; in the experiment with TK-10 renal it was > 1 µM.

Turning to `CCOC(=O)NC(Nc1ccc(F)cc1)(C(=O)OCC)C(F)(F)F` (stereo unspecified), the TGI in the experiment with CCRF-CEM leukemia was > 23.9 µM; in the experiment with HT29 colon, > 100 µM; in the experiment on K-562 leukemia it was > 100 µM; in the experiment on KM12 colon, > 100 µM; with LOX IMVI melanoma, > 100 µM; with M14 melanoma it was > 100 µM. Further, the TGI in the experiment on NCI-H522 lung, in the experiment on NCI/ADR-RES ovarian, in the experiment on OVCAR-3 ovarian, in the experiment on RPMI-8226 leukemia, in the experiment with SF-268 CNS and with SK-MEL-28 melanoma was > 100 µM each time. The TGI with SN12C renal, in the experiment with SR leukemia and in the experiment with TK-10 renal was > 100 µM in each case.

For the compound `CCOC(=O)/C=C(/C(=O)OCC)n1ccc(=O)n(Cc2cnnn2COCCOC(C)=O)c1=O`, the TGI in the experiment on CCRF-CEM leukemia is 3.57 µM; with HT29 colon it was 32 µM; in the experiment with K-562 leukemia, > 100 µM; with KM12 colon, > 56.4 µM; in the experiment with LOX IMVI melanoma, 37.3 µM; in the experiment on M14 melanoma, 38.8 µM. The TGI was determined as 4.65 µM in the experiment with NCI-H522 lung; 61.9 µM in the experiment on NCI/ADR-RES ovarian; 31 µM in the experiment on OVCAR-3 ovarian; 51.2 µM with RPMI-8226 leukemia; 44.4 µM with SF-268 CNS; 32.2 µM in the experiment on SK-MEL-28 melanoma. Also, the results for the TGI in the experiment with SN12C renal, in the experiment with SR leukemia and with TK-10 renal were 47.9 µM, 45.7 µM and 22.2 µM, respectively.

For the compound `O=C1CC(CC(=O)c2ccc(Br)cc2)C(=O)/C1=C(/O)c1ccc(Br)cc1` (stereo unspecified), the TGI in the experiment on CCRF-CEM leukemia, in the experiment with HT29 colon, in the experiment on K-562 leukemia, in the experiment on KM12 colon, in the experiment with LOX IMVI melanoma and with M14 melanoma was > 100 µM in each case. Further, the TGI with NCI-H522 lung, in the experiment on NCI/ADR-RES ovarian, in the experiment with OVCAR-3 ovarian, in the experiment on RPMI-8226 leukemia, in the experiment with SF-268 CNS and in the experiment on SK-MEL-28 melanoma was > 100 µM in each case. In addition, the TGI with SN12C renal, in the experiment with SR leukemia and in the experiment on TK-10 renal was > 100 µM in each case.

As to `CC(C)C(OC(=O)c1ccc(NCC2=CC(=O)C=CC2=O)cc1)C(C)C`, the TGI with CCRF-CEM leukemia was found to be 2.36 µM; with HT29 colon it was 26.3 µM; in the experiment on K-562 leukemia, 12.6 µM; in the experiment with KM12 colon, 30.5 µM; with LOX IMVI melanoma, 18 µM; in the experiment with M14 melanoma, 19.7 µM. Further, the TGI was 2.85 µM in the experiment on NCI-H522 lung; 19.8 µM in the experiment with NCI/ADR-RES ovarian; 23.4 µM with OVCAR-3 ovarian; > 28.2 µM in the experiment on RPMI-8226 leukemia; 31.9 µM in the experiment with SF-268 CNS; 15 µM in the experiment on SK-MEL-28 melanoma. The TGI with SN12C renal came to 35.8 µM; with SR leukemia, 11.9 µM; in the experiment on TK-10 renal, 14.4 µM.

For the origin of these results see PubChem BioAssay (NCI).
